Laboratory results reported in patent US20070107072A1, “Transgenic amphibian models for lymphatic vessel development” (priority 2003, published 2007).

System: Prox-1
Assay: Prox-1 antisense morpholino knockdown in Xenopus embryos, whole-mount in situ hybridisation for Prox1 and morphometry
Format: in vivo, Xenopus laevis
Conditions: for reduction of total Prox-1 positive area: as compared to control tadpoles
Procedure: In a second example 25 ng of Prox-1 antisense morpholino oligonucleotides (Prox-1 MOs) was microinjected in a 1-cell stage Xenopus, in order to investigate the influence on the development of the lymphatic system. Prox1 is known to be expressed exclusively in lymphatic but not in blood vascular endothelial cells. Xenopus laevis embryos were obtained by artificial fertilization using standard techniques and sexually mature adult frogs purchased from Nasco Biology (Fort Atkinson, Wis.). The Prox-1 MOs, 5′-[…]-3′, were purchased from Gene Tools (Corvallis, Oreg.) and designed around the ATG codon. As ATG-specific morpholinos lower translation—but not transcription—of the target gene, we used whole embryo mount in situ hybridisation for Prox1 to visualize the defects in lymphatic vascular development. The 5′ nucleotide sequence of Prox-1 was obtained using 5′ RACE using primers based on published Xenopus laevis cDNA (GenBank # AB008773). To visualise Prox-1 expression pattern, embryos were collected at different developmental stages (according to Nieuwkoop and Faber), fixed and submitted to whole-mount in situ hybridisation according Harland (Harland, 1991), with the exception that BM purple was used as a substrate. The Prox-1 digoxigenin-labeled riboprobe used was constructed from a 950 bp cDNA fragment (GenBank # AB008773), which was cloned into pGEMTeasy and linearised with AatII to get SP6 antisense probe. After in situ hybridisation the embryos where bleached, cleared and stored in glycerol until analysed. Analysis was performed using a Zeiss Axioplan 2 imaging microscope equipped with a Axiocam HrC camera and the KS300 morphometry software. The total ISH-region was divided into 3 different regions where the first region represents the ventral side the tail, a second region where the dorsal migration of prox-1 positive cells takes place and finally a third region which represents the dorsal side. For all regions, length of positive staining was measured, followed by segmentation of the ISH-area by hue, lightness and saturation for defining the true stained area. A value of migration is given by the cell that traveled furthest across the tail. In non-morpholino treated Xenopus we observed that the normal lymphatic system starts developing at the jugular region of the tadpole around developmental stage 29/30. Apart from expression in non-lymphatic tissues such as the pronephros and the eye, the Prox-1 expression at this stage seems to be restricted to the jugular region. At the following stage (31-32), the staining in the jugular region is expanded to what will become the future lymphsacs. The region of the future anterior lymph hearts as well as the ventral caudal region show intense Prox-1 positive signal too. By stage 33/34 the prox positive cells in the caudal region start the formation of the ventral caudal lymphatic vessel. Prox-1 positive lymphatic cells are migrating from the ventral to the dorsal region and this event is culminating at stage 35/36 where the highest amount of migrating cells can be accounted for. The formation of what eventually will become the dorsal lymphatic vessel is also initiated at this stage. By stage 37-38 a majority of the prox positive cells have reached the dorsal side where they are contributing to the formation of dorsal caudal lymphatic vessels. […] In the tail of the Prox-1 morphants dorsal migration of Pro-1 positive cells is dearly impaired. […]

Substance: 5′-CAGGCATCACTGGACTGTTATTGTG-3′ (all phosphorodiamidate morpholino (PMO)) [Prox-1 MOs, Prox-1 antisense morpholino oligonucleotides purchased from Gene Tools, designed around the ATG codon]
- formation of the lymph hearts and the rostral lymphatic structures (Prox1 knockdown): impaired
- cardiogenesis (looping, septation and beating of the heart, and blood circulation) (Prox1 morphants): all normal
- development of blood vessels (number of Msr-positive intersomitic vessels in anterior trunk, Msr-positive area in posterior trunk) (Prox1 morphants): not affected
- Prox-1 staining of the anterior region (Prox-1 morphants): clearly reduced
- edema in the head and anterior trunk (beyond stage 45): manifest edema in the head and anterior trunk developed in most Prox1 knockdown embryos
- reduction of total Prox-1 positive area (stage 33/34): about 60%
- reduction of dorsal migration of Prox-1 positive cells in the tail (stage 35/36, 25 ng microinjected in 1-cell stage, vs control tadpoles): about 55%
- reduction of total Prox-1 positive area (stage 35/36): ~50%
- dorsal migration of Prox-1 positive cells in the tail (stage 37/38, 25 ng microinjected in 1-cell stage): significantly reduced
- reduction of total Prox-1 positive area (stage 37/38): ~35%
